Measurements: patent US20250034182A1, “PHOSPHOLIPID COMPOUNDS AND METHODS OF MAKING AND USING THE SAME” (priority 2021, published 2025)

Key:
Assay type in all cases: cell-based
[1] = system: Respiratory syncytial virus recombinant with luciferase (RSV-Luc5) in HEp-2 cells; test: HEp-2 RSV-Luc5 384-well assay (EC50 RSVFLUC Hep2-384 v2, Example V); settings: human respiratory syncytial virus, HEp-2, 72 h, read-out: RSV Hep-2 FLuc EC50 (v2) (nM) (per Ex. V)
Summary of the method: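 HEp-2 cells (4,000/well) infected with RSV-Luc5 at MOI 0.5 in DMEM/10% FBS with compound, 10-point 1:3 dilutions, 3 days at 37 °C. Replication read by One-Glo luminescence, normalized to remdesivir (0%) and DMSO (100%). EC50 from non-linear regression as concentration giving 50% reduction.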

[2] = RSV HEP2-CC50-384-V2 (per Ex. V); settings: human
[3] = system: Human Rhinovirus 1B (HRV1B) in H1-HeLa cells; test: H1-HeLa HRV-CTG EC50, HRV1B (Example Z); settings: Rhinovirus A, 96 h, MOI 0.5, 4 days, Celltiter-Glo, read-out: HRV 1B HELA EC50 (nM) (per Ex. Z)
From the text: H1-Hela cell line (ATCC, Manassas, VA, Cat #CRL-1958) was maintained in Dulbecco's […] (DMEM) (Corning, New York, NY, Cat #15-018CM) supplemented with 10% fetal bovine serum (FBS) (Hyclone, Logan, UT, Cat #SH30071-03), and 1× Penicillin-Streptomycin-L-Glutamine (Coming, New York, NY, Cat #30-009-C1). Cells were passaged 2 times per week to maintain sub-confluent densities and were used for experiments at passage 5-30. The Human Rhinovirus 1B (HRV1B) (ATCC, Manassas, VA, Cat #VR-1645), Human Rhinovirus 14 (HRV14) (ATCC, Manassas, VA, Cat #VR-284), and Human Rhinovirus 16 (HRV16) (ATCC, Manassas, VA, Cat #BR-283) was obtained through ATCC. Viral infection was monitored by determining viability of H1-HeLa cells as described below.
Test molecules are prepared in 100% DMSO in 384-well polypropylene plates (Greiner, Monroe, NC, Cat #784201) with 8 compounds per plate in grouped replicates of 4 at 10 serially diluted concentrations (1:3). The serially diluted compounds were transferred to low dead volume Echo plates (Labcyte, Sunnyvale, CA, Cat #LP-0200).
The test compounds were spotted to 384-well assay plates (Greiner, Monroe, NC, Cat #781091) at 200 nL per well using an Echo acoustic dispenser (Labcyte, Sunnyvale, CA). H1-HeLa cells were harvested and suspended in DMEM (supplemented with 2% FBS and 1× Penicillin-Streptomycin-L-Glutamine) and seeded to the pre-spotted assay plates at 5,000 cells per well in 30 μL. HRV1B, HRV14, and HRV16 was diluted in DMEM (supplemented with 2% FBS and 1× Penicillin-Streptomycin-L-Glutamine) at 97.1 million Infectious Units (IU) per mL, 151 million IU per mL and 221 million IU per mL respectively. 10 μL of virus per well was added to the assay plates containing cells and compounds, for an MOI of 0.5, 1.0, and 0.25 respectively. The assay plates were incubated for 4 days at 37° C. and 5% CO2. At the end of incubation, Celltiter-Glo (Promega, Madison, WI, Cat #G7573) was prepared. The assay plates and Celltiter-Glo reagent were equilibrated to room temperature for at least 15 minutes. 40 μL per well of Celltiter-Glo reagent was added and the plates were incubated at room temperature for 15 minutes before reading the luminescence signal on an EnVision multimode plate reader (Perkin Elmer, Waltham, MA). Rupintrivir was used as positive control and DMSO was used as negative control. Values were normalized to the positive and negative controls (as 0% and 100% replication, respectively) and data was fitted using non-linear regression analysis by Gilead's dose response tool. The EC50 value for each compound was defined as the concentration reducing viral replication by 50%.

[4] = RSV NHBE CC50 384 V2 (per Ex. U); settings: human

SMILES	EC50 [1] [nM]	CC50 at 3 days [2] [µM]	EC50 [3] [nM]	CC50 at 3 days [4] [µM]
CCCCCCCCCCCCCCCCCCC[C@H](COP(=O)(O)OC[C@@]1(C#N)O[C@@H](c2ccc3c(N)ncnn23)[C@H](O)[C@@H]1O)Oc1ccc(C#N)c(OC(C)C)c1 [Compound 38, ((2R,3S,4R,5S)-5-(4-aminopyrrolo[2,1-f][1,2,4]triazin-7-yl)-2-cyano-3,4-dihydroxytetrahydrofuran-2-yl)methyl ((R)-2-(4-cyano-3-isopropoxyphenoxy)henicosyl) hydrogen phosphate]	212	35.3	12	7.99
CCCCCCCCCCCCCCCCCCOC[C@H](COP(=O)(O)OC[C@@]1(C#N)O[C@@H](c2ccc3c(N)ncnn23)[C@H](O)[C@@H]1O)OCc1ccc(C#N)cc1OC [Compound 73, ((2R,3S,4R)-5-(4-aminopyrrolo[2,1-f][1,2,4]triazin-7-yl)-2-cyano-3,4-dihydroxytetrahydrofuran-2-yl)methyl ((R)-2-((4-cyano-2-methoxybenzyl)oxy)-3-(octadecyloxy)propyl) hydrogen phosphate]	104	> 47	12	3.82
CCCCCCCCCCCCCCCCCCOC[C@H](COP(=O)(O)OC[C@@]1(C#N)O[C@@H](c2ccc3c(N)ncnn23)[C@H](O)[C@@H]1O)OCc1ccc(C#N)c(-n2cncn2)c1 [Compound 16, ((2R,3S,4R,5S)-5-(4-aminopyrrolo[2,1-f][1,2,4]triazin-7-yl)-2-cyano-3,4-dihydroxytetrahydrofuran-2-yl)methyl ((R)-2-((4-cyano-3-(1H-1,2,4-triazol-1-yl)benzyl)oxy)-3-(octadecyloxy)propyl) hydrogen phosphate]	36	> 41.5	5	4.61
CCCCCCCCCCCCCCCCC[C@H](COP(=O)(O)OC[C@@]1(C#N)O[C@@H](c2ccc3c(N)ncnn23)[C@H](O)[C@@H]1O)OCc1cc(F)cc(C#N)c1 [Compound 36, ((2R,3S,4R,5S)-5-(4-aminopyrrolo[2,1-f][1,2,4]triazin-7-yl)-2-cyano-3,4-dihydroxytetrahydrofuran-2-yl)methyl ((R)-2-((3-cyano-5-fluorobenzyl)oxy)nonadecyl) hydrogen phosphate]	353	> 50	102	2.74
CCCCCCCCCCCCCCOC[C@H](COP(=O)(O)OC[C@@]1(C#N)O[C@@H](c2ccc3c(N)ncnn23)[C@H](O)[C@@H]1O)Oc1cc(C#N)ccn1 [Compound 69, ((2R,3S,4R)-5-(4-aminopyrrolo[2,1-f][1,2,4]triazin-7-yl)-2-cyano-3,4-dihydroxytetrahydrofuran-2-yl)methyl ((R)-2-((4-cyanopyridin-2-yl)oxy)-3-(tetradecyloxy)propyl) hydrogen phosphate]	674	> 50	116	3.29
CCCCCCCCCCCCCCCC[C@@H](COP(=O)(O)OC[C@@]1(C#N)O[C@@H](c2ccc3c(N)ncnn23)[C@H](O)[C@@H]1O)OCc1cc(F)cc(C#N)c1 [Compound 79, ((2R,3S,4R,5S)-5-(4-aminopyrrolo[2,1-f][1,2,4]triazin-7-yl)-2-cyano-3,4-dihydroxytetrahydrofuran-2-yl)methyl ((S)-2-((3-cyano-5-fluorobenzyl)oxy)octadecyl) hydrogen phosphate]	1090	38.1	25	2.1
CCCCCCCCCCCCCCCC[C@H](COP(=O)(O)OC[C@@]1(C#N)O[C@@H](c2ccc3c(N)ncnn23)[C@H](O)[C@@H]1O)OCc1cc(F)cc(C#N)c1 [Compound 78, ((2R,3S,4R,5S)-5-(4-aminopyrrolo[2,1-f][1,2,4]triazin-7-yl)-2-cyano-3,4-dihydroxytetrahydrofuran-2-yl)methyl ((R)-2-((3-cyano-5-fluorobenzyl)oxy)octadecyl) hydrogen phosphate]	439	34.6	24	1.2
CCCCCCCCCCCCCCCCCCC[C@H](COP(=O)(O)OC[C@@]1(C#N)O[C@@H](c2ccc3c(N)ncnn23)[C@H](O)[C@@H]1O)OCc1ccc(C#N)c(OC(C)C)c1 [Compound 28, ((2R,3S,4R,5S)-5-(4-aminopyrrolo[2,1-f][1,2,4]triazin-7-yl)-2-cyano-3,4-dihydroxytetrahydrofuran-2-yl)methyl ((R)-2-((4-cyano-3-isopropoxybenzyl)oxy)henicosyl) hydrogen phosphate]	353	30.6	36	7.56
CCCCCCCCCCCCCCCCCCOC[C@H](COP(=O)(O)OC[C@@]1(C#N)O[C@@H](c2ccc3c(N)ncnn23)[C@H](O)[C@@H]1O)Oc1cccc(C#N)n1 [Compound 21, ((2R,3S,4R,5S)-5-(4-aminopyrrolo[2,1-f][1,2,4]triazin-7-yl)-2-cyano-3,4-dihydroxytetrahydrofuran-2-yl)methyl ((R)-2-((6-cyanopyridin-2-yl)oxy)-3-(octadecyloxy)propyl) hydrogen phosphate]	222	39.7	35	3.35
CCCCCCCCCCCCCCCCCCCC[C@H](COP(=O)(O)OC[C@@]1(C#N)O[C@@H](c2ccc3c(N)ncnn23)[C@H](O)[C@@H]1O)Oc1cccc(C#N)c1 [Compound 51, ((2R,3S,4R,5S)-5-(4-aminopyrrolo[2,1-f][1,2,4]triazin-7-yl)-2-cyano-3,4-dihydroxytetrahydrofuran-2-yl)methyl ((R)-2-(3-cyanophenoxy)docosyl) hydrogen phosphate]	436	> 46.2	33	8.33
CCCCCCCCCCCCCCCCCCOC[C@@H](COP(=O)(O)OC[C@@]1(C#N)O[C@@H](c2ccc3c(N)ncnn23)[C@H](O)[C@@H]1O)Oc1ccc(C#N)nc1 [Compound 72, ((2R,3S,4R,5S)-5-(4-aminopyrrolo[2,1-f][1,2,4]triazin-7-yl)-2-cyano-3,4-dihydroxytetrahydrofuran-2-yl)methyl ((S)-2-((6-cyanopyridin-3-yl)oxy)-3-(octadecyloxy)propyl) hydrogen phosphate]	45	> 49.9	3	1.61
CCCCCCCCCCCCCCCCCCOC[C@H](COP(=O)(O)OC[C@@]1(C#N)O[C@@H](c2ccc3c(N)ncnn23)[C@H](O)[C@@H]1O)OCc1cccc(C#N)n1 [Compound 68, ((2R,3S,4R)-5-(4-aminopyrrolo[2,1-f][1,2,4]triazin-7-yl)-2-cyano-3,4-dihydroxytetrahydrofuran-2-yl)methyl ((R)-2-((6-cyanopyridin-2-yl)methoxy)-3-(octadecyloxy)propyl) hydrogen phosphate]	110	42.8	12	2.06
CCCCCCCCCCCCCCCCCCCC[C@H](COP(=O)(O)OC[C@@]1(C#N)O[C@@H](c2ccc3c(N)ncnn23)[C@H](O)[C@@H]1O)OCc1cc(F)cc(C#N)c1 [Compound 34, ((2R,3S,4R)-5-(4-aminopyrrolo[2,1-f][1,2,4]triazin-7-yl)-2-cyano-3,4-dihydroxytetrahydrofuran-2-yl)methyl ((R)-2-((3-cyano-5-fluorobenzyl)oxy)docosyl) hydrogen phosphate]	1890	> 43.2	281	7.25
